Values of other authors, collected in article PMC6318274, “Lattice engineering enables definition of molecular features allowing for potent small-molecule inhibition of HIV-1 entry” (Nature Communications, 2019).
Like-named read-outs stand apart in the source and are kept apart here.

Tested on: HIV-1 Env-pseudoviruses (208-strain panel)
Conditions: cited from earlier work

In the case of `COc1cnc(-n2cnc(C)n2)c2[nH]cc(C(=O)C(=O)N3CCN(C(=O)c4ccccc4)CC3)c12` [BMS-626529], the IC50 (45_01dG5, clade B, read-out: IC50) is listed as 0.4 nM, the IC50 (0077.v1.c16, clade C, read-out: IC50) is listed as 2 nM and the IC50 (89.6.DG, clade B, read-out: IC50) is listed as 2 nM. The IC50 (96ZM651.02, clade C, read-out: IC50) was 4 nM, the IC50 (208-strain panel, read-out: Geometric mean IC50) was 15.9 nM and the IC50 (208-strain panel, read-out: Median IC50) was 9 nM. The IC50 (235-47, clade AG, read-out: IC50) was 1 nM, the IC50 (242-14, clade AG, read-out: IC50) was 23 nM and the IC50 (246-F3.C10.2, clade AC, read-out: IC50) was 200 nM. For the same compound, the IC50 (247-23, clade D, read-out: IC50) was 11 nM, the IC50 (0260.v5.c36, clade A, read-out: IC50) was 29 nM and the IC50 (263-8, clade AG, read-out: IC50) was 2 nM. The IC50 (269-12, clade AG, read-out: IC50) was 15100 nM, the IC50 (271-11, clade AG, read-out: IC50) was > 20000 nM and the IC50 (286.36, clade C, read-out: IC50) was 1 nM. For the same compound, the IC50 (288.38, clade C, read-out: IC50) was 3 nM, the IC50 (0330.v4.c3, clade A, read-out: IC50) was 98 nM and the IC50 (398-F1.F6.20, clade A, read-out: IC50) was 372 nM. For the same compound, the IC50 (426c, clade C, read-out: IC50) was 30 nM, the IC50 (0439.v5.c1, clade A, read-out: IC50) was 9 nM and the IC50 (0815.v3.c3, clade ACD, read-out: IC50) was 2 nM. For the same compound, the IC50 (00836-2.5, clade C, read-out: IC50) was > 20000 nM, the IC50 (0921.v2.c14, clade C, read-out: IC50) was 0.9 nM and the IC50 (928-28, clade AG, read-out: IC50) was 2080 nM. The IC50 (001428-2.42, clade C, read-out: IC50) was 49 nM, the IC50 (3016.v5.c45, clade D, read-out: IC50) was 0.5 nM and the IC50 (3168.v4.c10, clade C, read-out: IC50) was 1 nM. The IC50 (3301.v1.c24, clade AC, read-out: IC50) was 15 nM, the IC50 (3326.v4.c3, clade CD, read-out: IC50) was 0.3 nM and the IC50 (3337.v2.c6, clade CD, read-out: IC50) was 1 nM. For the same compound, the IC50 (3365.v2.c20, clade A, read-out: IC50) was 1920 nM, the IC50 (3415.v1.c1, clade A, read-out: IC50) was 5 nM and the IC50 (3468.v1.c12, clade AD, read-out: IC50) was 7 nM. The IC50 (3589.v1.c4, clade AC, read-out: IC50) was 1 nM, the IC50 (3637.v5.c3, clade C, read-out: IC50) was 1 nM and the IC50 (3718.v3.c11, clade A, read-out: IC50) was 10 nM. For the same compound, the IC50 (3817.v2.c59, clade CD, read-out: IC50) was 48 nM, the IC50 (3873.v1.c24, clade C, read-out: IC50) was 0.6 nM and the IC50 (3988.25, clade B, read-out: IC50) was 1 nM. The IC50 (5768.04, clade B, read-out: IC50) was 3 nM, the IC50 (6095.v1.c10, clade ACD, read-out: IC50) was 1 nM and the IC50 (6101.10, clade B, read-out: IC50) was 1 nM. For the same compound, the IC50 (6322.v4.c1, clade C, read-out: IC50) was 91 nM, the IC50 (6405.v4.c34, clade D, read-out: IC50) was 2470 nM and the IC50 (6471.v1.c16, clade C, read-out: IC50) was 2 nM. The IC50 (6535.3, clade B, read-out: IC50) was 0.3 nM, the IC50 (6540.v4.c1, clade AC, read-out: IC50) was 41 nM and the IC50 (6545.v4.c1, clade AC, read-out: IC50) was 32 nM. For the same compound, the IC50 (6631.v3.c10, clade C, read-out: IC50) was 3 nM, the IC50 (6644.v2.c33, clade C, read-out: IC50) was 71 nM and the IC50 (6785.v5.c14, clade C, read-out: IC50) was 292 nM. The IC50 (6838.v1.c35, clade C, read-out: IC50) was 19 nM, the IC50 (7165.18, clade B, read-out: IC50) was 29 nM and the IC50 (0013095-2.11, clade C, read-out: IC50) was 5 nM. The IC50 (16055-2.3, clade C, read-out: IC50) was 3 nM, the IC50 (16845-2.22, clade C, read-out: IC50) was 1 nM and the IC50 (16936-2.21, clade C, read-out: IC50) was 6 nM. For the same compound, the IC50 (25710-2.43, clade C, read-out: IC50) was 2 nM, the IC50 (25711-2.4, clade C, read-out: IC50) was 13 nM and the IC50 (25925-2.22, clade C, read-out: IC50) was 2 nM. For the same compound, the IC50 (26191-2.48, clade C, read-out: IC50) was 2 nM, the IC50 (57128.vrc15, clade D, read-out: IC50) was 6 nM and the IC50 (191821.E6.1, clade D, read-out: IC50) was 0.8 nM. For the same compound, the IC50 (231965.c01, clade D, read-out: IC50) was 1 nM, the IC50 (620345.c1, clade AE, read-out: IC50) was 4130 nM and the IC50 (A07412M1.vrc12, clade D, read-out: IC50) was 8 nM. The IC50 (AC10.29, clade B, read-out: IC50) was 3 nM, the IC50 (ADA.DG, clade B, read-out: IC50) was 3 nM and the IC50 (BB201.B42, clade A, read-out: IC50) was 242 nM. For the same compound, the IC50 (BB539.2B13, clade A, read-out: IC50) was 7 nM, the IC50 (BG1168.01, clade B, read-out: IC50) was 13 nM and the IC50 (BI369.9A, clade A, read-out: IC50) was 6 nM. For the same compound, the IC50 (BJOX002000.03.2, clade BC, read-out: IC50) was 5 nM, the IC50 (BJOX009000.02.4, clade AE, read-out: IC50) was 5130 nM and the IC50 (BJOX010000.06.2, clade AE, read-out: IC50) was > 20000 nM. For the same compound, the IC50 (BJOX025000.01.1, clade AE, read-out: IC50) was > 20000 nM, the IC50 (BJOX028000.10.3, clade AE, read-out: IC50) was > 20000 nM and the IC50 (BL01.DG, clade B, read-out: IC50) was > 20000 nM. The IC50 (BR07.DG, clade B, read-out: IC50) was 786 nM, the IC50 (BR025.9, clade C, read-out: IC50) was > 20000 nM and the IC50 (BS208.B1, clade A, read-out: IC50) was 17 nM. For the same compound, the IC50 (BX08.16, clade B, read-out: IC50) was 2 nM, the IC50 (BaL.26, clade B, read-out: IC50) was 0.8 nM and the IC50 (Bal.01, clade B, read-out: IC50) was 1 nM. For the same compound, the IC50 (C1080.c3, clade AE, read-out: IC50) was > 20000 nM, the IC50 (C2101.c1, clade AE, read-out: IC50) was > 20000 nM and the IC50 (C3347.c11, clade AE, read-out: IC50) was 18100 nM. For the same compound, the IC50 (C4118.09, clade AE, read-out: IC50) was 4040 nM, the IC50 (CAAN.A2, clade B, read-out: IC50) was 1 nM and the IC50 (CAP45.G3, clade C, read-out: IC50) was 32 nM. For the same compound, the IC50 (CAP210.E8, clade C, read-out: IC50) was 77 nM, the IC50 (CAP244.D3, clade C, read-out: IC50) was 7 nM and the IC50 (CE703010217.B6, clade C, read-out: IC50) was 2 nM. The IC50 (CH038.12, clade BC, read-out: IC50) was 329 nM, the IC50 (CH070.1, clade BC, read-out: IC50) was 23 nM and the IC50 (CH117.4, clade BC, read-out: IC50) was 26 nM. The IC50 (CH119.10, clade BC, read-out: IC50) was 4 nM, the IC50 (CH181.12, clade BC, read-out: IC50) was 1 nM and the IC50 (CM244.ec1, clade AE, read-out: IC50) was > 20000 nM. The IC50 (CNE3, clade AE, read-out: IC50) was 8520 nM, the IC50 (CNE4, clade B, read-out: IC50) was > 20000 nM and the IC50 (CNE5, clade AE, read-out: IC50) was 12700 nM. The IC50 (CNE7, clade BC, read-out: IC50) was 13 nM, the IC50 (CNE8, clade AE, read-out: IC50) was > 20000 nM and the IC50 (CNE10, clade B, read-out: IC50) was 0.5 nM. The IC50 (CNE12, clade B, read-out: IC50) was 1 nM, the IC50 (CNE14, clade B, read-out: IC50) was 230 nM and the IC50 (CNE15, clade BC, read-out: IC50) was 0.9 nM. The IC50 (CNE19, clade BC, read-out: IC50) was 2 nM.
